{"source": "the supplement of paper PMC10307832", "experiment_in_all_cases": "relative viability (nuclei count vs DMSO), 5 days (fraction); higher = more cells survive", "key": {"NCI-H1666": {"test_system": "NCI-H1666", "outline": "(§1)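 Lung cancer cell lines, seeded in 1536-well plates, were treated the following day by pin tool with a single drug or with five library-drug doses (not always all listed) in √10 steps on top of a fixed anchor-drug dose. Cells were fixed and nuclei stained in one step after 5 days, and nuclei were counted. Relative viability is the nuclei count for treated wells divided by that for vehicle wells, reported as medians of duplicate plates.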"}, "CAL-12T": {"test_system": "CAL-12T", "outline": "as §1"}, "NCI-H1395": {"test_system": "NCI-H1395", "outline": "as §1"}, "NCI-H520": {"test_system": "NCI-H520", "outline": "as §1"}, "LCLC-103H": {"test_system": "LCLC-103H", "outline": "as §1"}, "NCI-H647": {"test_system": "NCI-H647", "outline": "as §1"}, "NCI-H2170": {"test_system": "NCI-H2170", "outline": "as §1"}, "NCI-H1993": {"test_system": "NCI-H1993", "outline": "as §1"}, "NCI-H1651": {"test_system": "NCI-H1651", "outline": "as §1"}, "NCI-H2347": {"test_system": "NCI-H2347", "outline": "as §1"}, "NCI-H2085": {"test_system": "NCI-H2085", "outline": "as §1"}, "COR-L23": {"test_system": "COR-L23", "outline": "as §1"}, "HCC-44": {"test_system": "HCC-44", "outline": "as §1"}, "NCI-H23": {"test_system": "NCI-H23", "outline": "as §1"}, "NCI-H2342": {"test_system": "NCI-H2342", "outline": "as §1"}, "ChaGo-K-1": {"test_system": "ChaGo-K-1", "outline": "as §1"}, "NCI-H322M": {"test_system": "NCI-H322M", "outline": "as §1"}, "NCI-H1355": {"test_system": "NCI-H1355", "outline": "as §1"}, "201T": {"test_system": "201T", "outline": "as §1"}, "NCI-H661": {"test_system": "NCI-H661", "outline": "as §1"}, "HOP-62": {"test_system": "HOP-62", "outline": "as §1"}, "NCI-H2228": {"test_system": "NCI-H2228", "outline": "as §1"}, "LC-2-ad": {"test_system": "LC-2-ad", "outline": "as §1"}, "NCI-H838": {"test_system": "NCI-H838", "outline": "as §1"}}}
{"smiles": "CCCCCCCCCCCC1=C(O)C(=O)C=C(O)C1=O", "note": "[Embelin] + Nc1nc2[nH]cc(CCc3ccc(C(=O)N[C@@H](CCC(=O)O)C(=O)O)cc3)c2c(=O)[nH]1 [Pemetrexed] (partner 0.2 µM)", "values": [{"measurement": "relative viability", "setting": "NCI-H1666; first compound 0.08 µM", "value": 0.922}, {"measurement": "relative viability", "setting": "NCI-H1666; first compound 0.8 µM", "value": 0.894}, {"measurement": "relative viability", "setting": "NCI-H1666; first compound 2.53 µM", "value": 0.849}, {"measurement": "relative viability", "setting": "NCI-H1666; first compound 8 µM", "value": 0.817}, {"measurement": "relative viability", "setting": "CAL-12T; first compound 0.08 µM", "value": 1.11}, {"measurement": "relative viability", "setting": "CAL-12T; first compound 0.8 µM", "value": 1.4}, {"measurement": "relative viability", "setting": "CAL-12T; first compound 2.53 µM", "value": 1.1}, {"measurement": "relative viability", "setting": "CAL-12T; first compound 8 µM", "value": 1.06}, {"measurement": "relative viability", "setting": "NCI-H1395; first compound 0.08 µM", "value": 0.828}, {"measurement": "relative viability", "setting": "NCI-H1395; first compound 0.8 µM", "value": 1.03}, {"measurement": "relative viability", "setting": "NCI-H1395; first compound 2.53 µM", "value": 0.856}, {"measurement": "relative viability", "setting": "NCI-H1395; first compound 8 µM", "value": 0.585}, {"measurement": "relative viability", "setting": "NCI-H520; first compound 0.08 µM", "value": 0.656}, {"measurement": "relative viability", "setting": "NCI-H520; first compound 0.8 µM", "value": 0.852}, {"measurement": "relative viability", "setting": "NCI-H520; first compound 2.53 µM", "value": 0.708}, {"measurement": "relative viability", "setting": "NCI-H520; first compound 8 µM", "value": 0.821}, {"measurement": "relative viability", "setting": "LCLC-103H; first compound 0.08 µM", "value": 0.49}, {"measurement": "relative viability", "setting": "LCLC-103H; first compound 0.8 µM", "value": 0.485}, {"measurement": "relative viability", "setting": "LCLC-103H; first compound 2.53 µM", "value": 0.449}, {"measurement": "relative viability", "setting": "LCLC-103H; first compound 8 µM", "value": 0.458}, {"measurement": "relative viability", "setting": "NCI-H647; first compound 0.08 µM", "value": 0.19}, {"measurement": "relative viability", "setting": "NCI-H647; first compound 0.8 µM", "value": 0.246}, {"measurement": "relative viability", "setting": "NCI-H647; first compound 2.53 µM", "value": 0.169}, {"measurement": "relative viability", "setting": "NCI-H647; first compound 8 µM", "value": 0.214}, {"measurement": "relative viability", "setting": "NCI-H2170; first compound 0.08 µM", "value": 0.264}, {"measurement": "relative viability", "setting": "NCI-H2170; first compound 0.8 µM", "value": 0.252}, {"measurement": "relative viability", "setting": "NCI-H2170; first compound 2.53 µM", "value": 0.276}, {"measurement": "relative viability", "setting": "NCI-H2170; first compound 8 µM", "value": 0.274}, {"measurement": "relative viability", "setting": "NCI-H1993; first compound 0.08 µM", "value": 0.609}, {"measurement": "relative viability", "setting": "NCI-H1993; first compound 0.8 µM", "value": 0.568}, {"measurement": "relative viability", "setting": "NCI-H1993; first compound 2.53 µM", "value": 0.581}, {"measurement": "relative viability", "setting": "NCI-H1993; first compound 8 µM", "value": 0.554}, {"measurement": "relative viability", "setting": "NCI-H1651; first compound 0.08 µM", "value": 0.58}, {"measurement": "relative viability", "setting": "NCI-H1651; first compound 0.8 µM", "value": 0.613}, {"measurement": "relative viability", "setting": "NCI-H1651; first compound 2.53 µM", "value": 0.656}, {"measurement": "relative viability", "setting": "NCI-H1651; first compound 8 µM", "value": 0.642}, {"measurement": "relative viability", "setting": "NCI-H2347; first compound 0.08 µM", "value": 0.413}, {"measurement": "relative viability", "setting": "NCI-H2347; first compound 0.8 µM", "value": 0.482}, {"measurement": "relative viability", "setting": "NCI-H2347; first compound 2.53 µM", "value": 0.448}, {"measurement": "relative viability", "setting": "NCI-H2347; first compound 8 µM", "value": 0.434}, {"measurement": "relative viability", "setting": "NCI-H2085; first compound 0.08 µM", "value": 0.854}, {"measurement": "relative viability", "setting": "NCI-H2085; first compound 0.8 µM", "value": 1.01}, {"measurement": "relative viability", "setting": "NCI-H2085; first compound 2.53 µM", "value": 0.87}, {"measurement": "relative viability", "setting": "NCI-H2085; first compound 8 µM", "value": 0.871}, {"measurement": "relative viability", "setting": "COR-L23; first compound 0.08 µM", "value": 0.196}, {"measurement": "relative viability", "setting": "COR-L23; first compound 0.8 µM", "value": 0.196}, {"measurement": "relative viability", "setting": "COR-L23; first compound 2.53 µM", "value": 0.201}, {"measurement": "relative viability", "setting": "COR-L23; first compound 8 µM", "value": 0.191}, {"measurement": "relative viability", "setting": "HCC-44; first compound 0.08 µM", "value": 0.634}, {"measurement": "relative viability", "setting": "HCC-44; first compound 0.8 µM", "value": 0.632}, {"measurement": "relative viability", "setting": "HCC-44; first compound 2.53 µM", "value": 0.599}, {"measurement": "relative viability", "setting": "HCC-44; first compound 8 µM", "value": 0.699}, {"measurement": "relative viability", "setting": "NCI-H23; first compound 0.08 µM", "value": 0.786}, {"measurement": "relative viability", "setting": "NCI-H23; first compound 0.8 µM", "value": 0.675}, {"measurement": "relative viability", "setting": "NCI-H23; first compound 2.53 µM", "value": 0.589}, {"measurement": "relative viability", "setting": "NCI-H23; first compound 8 µM", "value": 0.665}, {"measurement": "relative viability", "setting": "NCI-H2342; first compound 0.08 µM", "value": 0.738}, {"measurement": "relative viability", "setting": "NCI-H2342; first compound 0.8 µM", "value": 0.806}, {"measurement": "relative viability", "setting": "NCI-H2342; first compound 2.53 µM", "value": 0.859}, {"measurement": "relative viability", "setting": "NCI-H2342; first compound 8 µM", "value": 0.814}, {"measurement": "relative viability", "setting": "ChaGo-K-1; first compound 0.08 µM", "value": 0.264}, {"measurement": "relative viability", "setting": "ChaGo-K-1; first compound 0.8 µM", "value": 0.258}, {"measurement": "relative viability", "setting": "ChaGo-K-1; first compound 2.53 µM", "value": 0.249}, {"measurement": "relative viability", "setting": "ChaGo-K-1; first compound 8 µM", "value": 0.251}, {"measurement": "relative viability", "setting": "NCI-H322M; first compound 0.08 µM", "value": 0.598}, {"measurement": "relative viability", "setting": "NCI-H322M; first compound 0.8 µM", "value": 0.625}, {"measurement": "relative viability", "setting": "NCI-H322M; first compound 2.53 µM", "value": 0.646}, {"measurement": "relative viability", "setting": "NCI-H322M; first compound 8 µM", "value": 0.667}, {"measurement": "relative viability", "setting": "NCI-H1355; first compound 0.08 µM", "value": 1.06}, {"measurement": "relative viability", "setting": "NCI-H1355; first compound 0.8 µM", "value": 1.13}, {"measurement": "relative viability", "setting": "NCI-H1355; first compound 2.53 µM", "value": 1.12}, {"measurement": "relative viability", "setting": "NCI-H1355; first compound 8 µM", "value": 0.784}, {"measurement": "relative viability", "setting": "201T; first compound 0.08 µM", "value": 0.347}, {"measurement": "relative viability", "setting": "201T; first compound 0.8 µM", "value": 0.326}, {"measurement": "relative viability", "setting": "201T; first compound 2.53 µM", "value": 0.333}, {"measurement": "relative viability", "setting": "201T; first compound 8 µM", "value": 0.299}, {"measurement": "relative viability", "setting": "NCI-H661; first compound 0.08 µM", "value": 0.953}, {"measurement": "relative viability", "setting": "NCI-H661; first compound 0.8 µM", "value": 0.936}, {"measurement": "relative viability", "setting": "NCI-H661; first compound 2.53 µM", "value": 0.886}, {"measurement": "relative viability", "setting": "NCI-H661; first compound 8 µM", "value": 0.896}, {"measurement": "relative viability", "setting": "HOP-62; first compound 0.08 µM", "value": 0.384}, {"measurement": "relative viability", "setting": "HOP-62; first compound 0.8 µM", "value": 0.365}, {"measurement": "relative viability", "setting": "HOP-62; first compound 2.53 µM", "value": 0.308}, {"measurement": "relative viability", "setting": "HOP-62; first compound 8 µM", "value": 0.303}, {"measurement": "relative viability", "setting": "NCI-H2228; first compound 0.08 µM", "value": 0.329}, {"measurement": "relative viability", "setting": "NCI-H2228; first compound 0.8 µM", "value": 0.347}, {"measurement": "relative viability", "setting": "NCI-H2228; first compound 2.53 µM", "value": 0.345}, {"measurement": "relative viability", "setting": "NCI-H2228; first compound 8 µM", "value": 0.39}, {"measurement": "relative viability", "setting": "LC-2-ad; first compound 0.08 µM", "value": 0.274}, {"measurement": "relative viability", "setting": "LC-2-ad; first compound 0.8 µM", "value": 0.282}, {"measurement": "relative viability", "setting": "LC-2-ad; first compound 2.53 µM", "value": 0.257}, {"measurement": "relative viability", "setting": "LC-2-ad; first compound 8 µM", "value": 0.288}, {"measurement": "relative viability", "setting": "NCI-H838; first compound 0.08 µM", "value": 0.271}, {"measurement": "relative viability", "setting": "NCI-H838; first compound 0.8 µM", "value": 0.238}, {"measurement": "relative viability", "setting": "NCI-H838; first compound 2.53 µM", "value": 0.252}, {"measurement": "relative viability", "setting": "NCI-H838; first compound 8 µM", "value": 0.247}]}
